For 30 molecules, IC50 results are on record in patent publication US20130116241A1, “NOVEL INHIBITOR COMPOUNDS OF PHOSPHODIESTERASE TYPE 10A” (AbbVie Inc., priority 2011, published 2013).

Structures can show the parent of a compound that is named as a salt. Bounds are passed on as bounds.

human PDE10A, sequence (Q9Y233 290-1055 limits assumed): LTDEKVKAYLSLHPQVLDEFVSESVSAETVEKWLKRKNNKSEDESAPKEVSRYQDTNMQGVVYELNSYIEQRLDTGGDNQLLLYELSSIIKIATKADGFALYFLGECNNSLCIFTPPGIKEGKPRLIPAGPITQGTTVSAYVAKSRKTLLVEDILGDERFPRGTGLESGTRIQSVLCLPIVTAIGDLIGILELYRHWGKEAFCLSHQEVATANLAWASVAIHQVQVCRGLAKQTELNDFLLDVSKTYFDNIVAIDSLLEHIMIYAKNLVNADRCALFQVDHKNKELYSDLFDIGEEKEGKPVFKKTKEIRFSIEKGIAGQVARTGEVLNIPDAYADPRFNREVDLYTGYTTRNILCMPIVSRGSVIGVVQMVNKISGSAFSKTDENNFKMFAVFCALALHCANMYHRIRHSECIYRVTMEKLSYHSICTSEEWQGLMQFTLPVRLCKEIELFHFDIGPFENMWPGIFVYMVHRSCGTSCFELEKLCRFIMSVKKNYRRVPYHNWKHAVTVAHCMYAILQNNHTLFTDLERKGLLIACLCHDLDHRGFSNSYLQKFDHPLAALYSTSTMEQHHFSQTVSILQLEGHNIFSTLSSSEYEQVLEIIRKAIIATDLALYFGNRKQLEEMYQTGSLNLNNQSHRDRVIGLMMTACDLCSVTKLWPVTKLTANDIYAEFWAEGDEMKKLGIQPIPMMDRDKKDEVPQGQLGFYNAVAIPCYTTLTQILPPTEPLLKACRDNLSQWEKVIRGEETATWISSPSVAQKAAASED

The target of the experiment is human PDE10A (UniProt Q9Y233). Put plainly: Measurement of PDE activity (recombinant enzyme, HTRF cAMP kit). The class given is biochemical. The conditions noted are these: Table 1, substrate 20 nM for PDE10, 60 minutes at 29 C, read-out: IC50. On the procedure:
The recombinant PDE proteins are used in in vitro enzymatic reaction for measurement of PDE activity. These recombinant proteins, including PDE10A (human, rat and mouse PDE10) and isoforms of PDEs 1, 3, 4, and 5, were purchased from commercial vendor BPS Bioscience. The enzymatic activity of PDEs was determined by cAMP measurement kit from CisBio (IBA) using HTRF technology.
The PDE enzymatic reaction was carried out in assay buffer (20 mM Tris-HCl pH7.5, 10 mM MgCl2, 0.1% bovine serum albumin) containing enzyme and substrate. The PDE enzymes concentration ranged from 10 pM-250 pM, depending on each enzyme's specific activity. The substrate cyclic nucleotide (cAMP or cGMP) concentration used in the assay was 20 nM for PDE10, and 100 nM for other PDEs. The inhibitory effect of compound was determined by incubating various concentration of inhibitor in the enzymatic assay. Typically, compound was serial diluted in DMSO then further diluted in assay buffer. Next, the compound at varying concentration was mixed with PDE enzyme. The reaction was initiated by addition of cyclic nucleotide substrate, and incubated for 60 minutes at 29 C. The reaction was stopped by addition of lysis buffer from assay kit. The cAMP-d2 and anti-cAMP cryptate in the lysis buffer detected the level of cAMP left from the PDE hydrolysis reaction. The PDE activity is reversely correlated with the amount of cAMP left in the reaction and can be converted to the percent activity of an uninhibited control (100%). Thus, IC50 value of inhibitor can be obtained by plotting inhibitor concentration against PDE activity at that concentration.
Consider `O=c1c2c(-c3cc(F)ccc3F)csc2cnn1CCc1ccc2ccccc2n1` [Example 76, 3-(2,5-difluorophenyl)-5-[2-(quinolin-2-yl)ethyl]thieno[2,3-d]pyridazin-4(5H)-one], for which the IC50 (in general, the point on the concentration scale where inhibition reaches its midpoint) was in the range of 100 to 200 nM.

`O=c1c2c(-c3ccc(F)c(F)c3)csc2cnn1CCc1ccc2ccccc2n1` [Example 72, 3-(3,4-difluorophenyl)-5-[2-(quinolin-2-yl)ethyl]thieno[2,3-d]pyridazin-4(5H)-one]: the 50% inhibitory concentration (IC50) was 100 to 200 nM.

For the molecule `O=c1c2c(-c3cccnc3)cccc2ccn1C1CC1c1ccc2ccccc2n1` (single isomer, unassigned; (+)) [Example 239a, (+) anti 8-(pyridin-3-yl)-2-(2-(quinolin-2-yl)cyclopropyl)isoquinolin-1(2H)-one], the IC50 was 100 to 200 nM.

Turning to `Cc1cc(-c2cccc3cnn(CCc4ccc5ccccc5n4)c(=O)c23)ccn1` [Example 135, 8-(2-Methylpyridin-4-yl)-2-[2-(quinolin-2-yl)ethyl]phthalazin-1(2H)-one], the 50% inhibitory concentration (IC50) was under 100 nM.

For the molecule `O=c1c2c(C3=CCNCC3)csc2ccn1CCc1ccc2ccccc2n1` [Example 213, 5-(2-(Quinolin-2-yl)ethyl)-3-(1,2,3,6-tetrahydropyridin-4-yl)thieno[3,2-c]pyridin-4(5H)-one hydrochloride], the IC50 lay in the range of 200 to 500 nM.

As for `O=c1c2c(-c3ccccc3)csc2cnn1CCc1ccc2ccccc2n1` [Example 85, 3-phenyl-5-[2-(quinolin-2-yl)ethyl]thieno[2,3-d]pyridazin-4(5H)-one], the IC50 was 100 to 200 nM.

For the molecule `O=c1c2c(-c3ccncc3)csc2ccn1C1CC1c1ccc2ccccc2n1` (racemic) [Example 224, anti (rac) 3-(Pyridin-4-yl)-5-(2-(quinolin-2-yl)cyclopropyl)thieno[3,2-c]pyridin-4(5H)-one], the IC50 was under 100 nM.

For the molecule `O=c1c2c(-c3ccc4ncccc4c3)csc2cnn1CCc1ccc2ccccc2n1` [Example 55, 3-(quinolin-6-yl)-5-[2-(quinolin-2-yl)ethyl]thieno[2,3-d]pyridazin-4(5H)-one], the IC50 was under 100 nM.

For the molecule `N#Cc1cccc(-c2cccc3cnn(CCc4ccc5ccccc5n4)c(=O)c23)c1` [Example 114, 3-{4-Oxo-3-[2-(quinolin-2-yl)ethyl]-3,4-dihydrophthalazin-5-yl}benzonitrile], the IC50 was in the range of 100 to 200 nM.

As to `O=c1c2c(-c3ccc(F)c(F)c3F)csc2cnn1CCc1ccc2ccccc2n1` [Example 60, 5-[2-(quinolin-2-yl)ethyl]-3-(2,3,4-trifluorophenyl)thieno[2,3-d]pyridazin-4(5H)-one], the concentration for half-maximal inhibition (IC50) is 200 to 500 nM.

Regarding `O=c1c2c(-c3ccc(F)c(F)c3)cccc2cnn1CCc1ccc2ccccc2n1` [Example 149, 8-(3,4-difluorophenyl)-2-[2-(quinolin-2-yl)ethyl]phthalazin-1(2H)-one], the concentration for half-maximal inhibition (IC50) fell in the range of 200 to 500 nM.

On to `O=c1c2c(N3CCC(F)(F)CC3)cccc2cnn1CCc1cn2ccccc2n1` [Example 179, 8-(4,4-Difluoropiperidin-1-yl)-2-[2-(imidazo[1,2-a]pyridin-2-yl)ethyl]phthalazin-1(2H)-one], for which the concentration for half-maximal inhibition (IC50) lay within 100 to 200 nM.

Consider `O=c1c2c(N3CCOCC3)cccc2ccn1[C@@H]1C[C@H]1c1ccc2cc(F)ccc2n1` (relative stereo) [Example 271, anti 2-(2-(6-fluoroquinolin-2-yl)cyclopropyl)-8-morpholinoisoquinolin-1(2H)-one], for which the IC50 is under 100 nM.

`O=c1c2c(-c3cncnc3)csc2ccn1C1CC1c1ccc2ccccc2n1` (stereo not drawn) [compound 282]: the IC50 was under 100 nM.

As for `O=c1c2c(NC3COC3)ccnc2cnn1CCc1ccc2ccccc2n1` [compound 406, 4-(oxetan-3-ylamino)-6-[2-(quinolin-2-yl)ethyl]pyrido[2,3-d]pyridazin-5(6H)-one], the 50% inhibitory concentration (IC50) was under 100 nM.

On to `O=c1c2c(N3CCC[C@H](O)C3)cccc2ccn1C1CC1c1ccc2ccccc2n1` (stereo partly drawn) [Example 244, anti 8-((3S)-3-hydroxypiperidin-1-yl)-2-(2-(quinolin-2-yl)cyclopropyl)isoquinolin-1(2H)-one (2E)-but-2-enedioate], for which the concentration for half-maximal inhibition (IC50) is under 100 nM.

Consider `O=c1c2c(-c3ccncc3)csc2cnn1C1CC1c1ccc2ccccc2n1` (stereo not drawn) [compound 295], for which the IC50 is under 100 nM.

Regarding `O=c1c2c(-c3cc(F)cc(F)c3)csc2cnn1CCc1ccc2ccccc2n1` [Example 80, 3-(3,5-difluorophenyl)-5-[2-(quinolin-2-yl)ethyl]thieno[2,3-d]pyridazin-4(5H)-one], the IC50 was 100 to 200 nM.

Regarding `O=c1c2c(-c3ccncc3)csc2cnn1CCc1ccc2sccc2n1` [Example 95, 3-(Pyridin-4-yl)-5-[2-(thieno[3,2-b]pyridin-5-yl)ethyl]thieno[2,3-d]pyridazin-4(5H)-one], the IC50 is under 100 nM.

As for `O=C1Cc2ccc(-c3cccc4cnn(CCc5cn6ccccc6n5)c(=O)c34)cc2N1` [Example 171, 2-[2-(Imidazo[1,2-a]pyridin-2-yl)ethyl]-8-(2-oxo-2,3-dihydro-1H-indol-6-yl)phthalazin-1(2H)-one], the IC50 is under 100 nM.

Regarding `O=c1c2c(-c3ccnnc3)cccc2ccn1C1CC1c1ccc2ccccc2n1` (single isomer, unassigned) [Example 236, anti (−) 8-(pyridazin-4-yl)-2-(2-(quinolin-2-yl)cyclopropyl)isoquinolin-1(2H)-one], the IC50 was under 100 nM.

In the case of `O=c1c2c(-c3cc(F)cc(F)c3)cccc2cnn1CCc1ccc2ccccc2n1` [Example 156, 8-(3,5-Difluorophenyl)-2-[2-(quinolin-2-yl)ethyl]phthalazin-1(2H)-one], the IC50 lay within 100 to 200 nM.

Regarding `O=c1c2c(-c3cccc(O)c3)csc2cnn1CCc1ccc2ccccc2n1` [Example 31, 3-(3-hydroxyphenyl)-5-[2-(quinolin-2-yl)ethyl]thieno[2,3-d]pyridazin-4(5H)-one], the concentration for half-maximal inhibition (IC50) lay in the range of 100 to 200 nM.

Turning to `O=c1c2c(-c3ccncc3)csc2ccn1C1CC1c1ccc2cc(F)ccc2n1` (stereo not drawn) [compound 281], the half-maximal inhibitory concentration (IC50) is under 100 nM.

Regarding `O=c1c2c(C#Cc3cccnc3)csc2cnn1CCc1ccc2ccccc2n1` [compound 319, hydrochloride], the IC50 is under 100 nM.

Regarding `O=c1c2c(-c3ccncc3)cccc2cnn1[C@@H]1C[C@H]1c1ccc2cc(F)ccc2n1` (relative stereo) [compound 278], the IC50 was under 100 nM.

As to `O=c1c2c(N3CCC[C@@H](O)C3)cccc2cnn1CCc1cn2ccccc2n1` [compound 332], the IC50 was 200 to 500 nM.

On to `Cc1ncc(-c2cccc3cnn(CCc4cn5ccccc5n4)c(=O)c23)cn1` [compound 342, 2-[2-(imidazo[1,2-a]pyridin-2-yl)ethyl]-8-(2-methylpyrimidin-5-yl)phthalazin-1(2H)-one], for which the IC50 was 100 to 200 nM.

As to `O=c1c2cccc(N3CCS(=O)(=O)CC3)c2cnn1CCc1ccc2ccccc2n1` [Example 195, 5-(1,1-Dioxidothiomorpholin-4-yl)-2-[2-(quinolin-2-yl)ethyl]phthalazin-1(2H)-one], the half-inhibitory concentration (IC50) was in the range of 100 to 200 nM.

Take `O=c1c2c(N3CC4COCC4C3)cccc2ccn1C1CC1c1ccc2ccccc2n1` (single isomer, unassigned) [Example 259, anti (−) 8-(dihydro-1H-furo[3,4-c]pyrrol-5(3H,6H,6aH)-yl)-2-(2-(quinolin-2-yl)cyclopropyl)isoquinolin-1(2H)-one]: the IC50 was under 100 nM.
